Six compounds from ChEMBL document CHEMBL1153703, “Cell-based optimization of novel benzamides as potential antimalarial leads” (Bioorg Med Chem Lett, 2009) can be followed below.

Some results are limits rather than exact numbers.

The test system of data set [1] is Mus musculus. The data set is described as follows: Dose normalised AUC (0 to 5 hrs) in BALB/c mouse at 20 mg/kg, po. The class given is ADME, organism-based. The arrangement: time < 4 hr, dose 20 mg/kg, route oral. To be noted: in vivo, 4 h.
The subject of data set [2] is Mus musculus. Put plainly: AUC (0 to 5 hrs) in BALB/c mouse at 20 mg/kg. Type of data set: ADME, organism-based, Plasma. The arrangement: time < 4 hr, dose 20 mg/kg. The following applies: in vivo, 4 h.
Data set [3] can be described thus: Cytotoxicity against human 293T cells. Type of data set: cell-based, HEK-293T. The following applies: read-out: TC50 (the source's name).
Data set [4] can be described thus: Selectivity index, TC50 for human Hep2 cells to EC50 for chloroquine-sensitive Plasmodium falciparum 3D7. Type of data set: toxicity, cell-based, HEp-2. To be noted: read-out: Selectivity Index.
A short description of data set [5]: Selectivity index, TC50 for CHO cells to EC50 for chloroquine-sensitive Plasmodium falciparum 3D7. Type of data set: toxicity, cell-based. The following applies: hamster, read-out: Selectivity Index.
Data set [6] in a line: Selectivity index, TC50 for mice (Mus musculus) BAF3 cells to EC50 for chloroquine-sensitive Plasmodium falciparum 3D7. The class given is toxicity, cell-based. The following applies: read-out: Selectivity Index.
The nature of data set [7]: Selectivity index, TC50 for human HuH7 cells to EC50 for chloroquine-sensitive Plasmodium falciparum 3D7. The class given is toxicity, cell-based, Huh-7. The following applies: read-out: Selectivity Index.
Data set [8] in a line: Cytotoxicity against human HuH7 cells. The following applies: read-out: TC50 (the source's name). Type of data set: cell-based, Huh-7.
Data set [9] is described as follows: Cytotoxicity against human HeLa cells. The class given is cell-based. The following applies: read-out: TC50 (the source's name).
The nature of data set [10]: Cytotoxicity against human Hep2 cells. Type of data set: cell-based, HEp-2. The following applies: read-out: TC50 (the source's name).
Data set [11] in a line: Cytotoxicity against CHO cells. Type of data set: cell-based, Cricetulus griseus. The following applies: chinese hamster, read-out: TC50 (the source's name).
Data set [12] in a line: Cytotoxicity against mouse BAF3 cells. Type of data set: cell-based. To be noted: read-out: TC50 (the source's name).
Data set [13] is described as follows: Selectivity index, TC50 for human HeLa cells to EC50 for chloroquine-sensitive Plasmodium falciparum 3D7. To be noted: read-out: Selectivity Index. The class given is toxicity, cell-based.

On to `O=C(Nc1cccc(Cl)c1)c1cc(N2CCC(N3CCCC3)CC2)cc(C(F)(F)F)c1`, for which the AUC (usually concentration integrated over time) in data set [1] came to 5.31 µg·min/mL; in [2], 3.92 µM·h.

With `CC1CCN(C2CCN(c3cc(C(=O)Nc4cccc(Cl)c4)cc(C(F)(F)F)c3)CC2)CC1`, the CC50 in [3], in data set [8], in data set [9], in data set [10], in data set [11] and in [12] was greater than 8 µM throughout. For the same compound, the selectivity ratio in [4], in data set [5], in data set [6], in [7] and in data set [13] was greater than 20 throughout. Also, the AUC in [1] is 11.42 µg·min/mL; in data set [2], 7.93 µM·h.

For the compound `O=C(Nc1cccc(Cl)c1)c1cc(N2CCC(N3CCCCC3)CC2)cc(C(F)(F)F)c1`, the AUC in data set [1] stood at 6.1 µg·min/mL; in [2], 4.37 µM·h.

For `O=C(Nc1cccc(C(F)(F)F)c1)c1cc(N2CCc3ccccc3C2)cc(C(F)(F)F)c1`, the results for the AUC in data set [1] and in data set [2] were 2.33 µg·min/mL and 1.67 µM·h, respectively.

Regarding `O=C(Nc1cc(Cl)cc(Cl)c1)c1cc(N2CCC(N3CCCC3)CC2)cc(C(F)(F)F)c1`, the AUC in data set [1] is 7.01 µg·min/mL; in data set [2], 4.81 µM·h.

As to `O=C(Nc1cc(N2CCC(N3CCCC3)CC2)cc(C(F)(F)F)c1)c1cccc(C(F)(F)F)c1`, the AUC in data set [1] was 6.94 µg·min/mL; in [2] it was 4.77 µM·h.
